Reference: patent publication US9067920B2, “Compounds useful for inhibiting Chk1” (Eli Lilly and Company, priority 2010, dated 2015)
Structures can show the parent of a compound that is named as a salt.

Target: T1, Chk1 (Homo sapiens, UniProt O14757)
T1 sequence (O14757 1-476): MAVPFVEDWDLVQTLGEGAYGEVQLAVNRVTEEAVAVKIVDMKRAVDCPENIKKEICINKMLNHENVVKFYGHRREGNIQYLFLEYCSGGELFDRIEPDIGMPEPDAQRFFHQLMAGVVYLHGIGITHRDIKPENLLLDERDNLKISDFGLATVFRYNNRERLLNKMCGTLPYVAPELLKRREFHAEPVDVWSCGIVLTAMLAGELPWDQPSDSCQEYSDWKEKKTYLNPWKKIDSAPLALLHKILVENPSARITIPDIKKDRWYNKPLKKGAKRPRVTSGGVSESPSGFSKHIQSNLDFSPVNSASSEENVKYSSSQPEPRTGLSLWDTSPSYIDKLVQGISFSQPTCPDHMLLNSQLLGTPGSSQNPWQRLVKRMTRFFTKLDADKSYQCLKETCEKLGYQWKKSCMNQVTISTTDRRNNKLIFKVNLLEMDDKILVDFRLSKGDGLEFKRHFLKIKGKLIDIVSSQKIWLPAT
Test: Chk1 in vivo target inhibition assay (Calu-6 xenograft, phospho-Chk1 ser296)
Parameters: from tissue; host or cells: Calu-6 xenograft tumour from nude mice; species or system nude mice
Settings: Calu-6 tumors, oral, 6 h after gemcitabine 150 mg/kg ip, 2 h post dose
Description: Calu-6 cells are cultured in growth media (MEM with Earle's Balanced Salt Solution with L-glutamine supplemented with […], 1×MEM non-essential amino acids, 1× sodium pyruvate) and expanded. Cells are harvested and washed twice with phosphate buffered saline and 1×10^6 cells in growth media (without serum) are mixed with equal volume of BD Matrigel™ matrix, then injected subcutaneously into the flank of pre-irradiated (4.5 Gy) nude mice (athymic nude). At day 15 after implant (tumor size=150-200 mm^3), gemcitabine formulated fresh in saline daily is administered to animals by intraperitoneal route at 150 mg/kg dose. […] Antigen-antibody-reporter conjugates immobilized on the membrane are detected with the Super Signal Western Femto HRP-detection reagent.
Signals are detected and captured using the FUJI LAS-4000 imaging system. Phospho-Chk1(ser296) band intensities are calculated using “Total Lab” software (Nonlinear Dynamics). The percent inhibition of the gemcitabine induced Chk1 autophosphorylation is calculated by using the following formula: % inhibition=(sample-phospho-Chk1 band—intensity average gemcitabine (Max) positive control-phospho-Chk1 band intensity)/(average negative control (Min)-phosphor-Chk1 band intensity—average gemcitabine (Max) positive control-phospho-Chk1 band intensity)×100.

COc1nc(C)ccc1-c1cc(Nc2cncc(O[C@@H]3CCCNC3)n2)[nH]n1 [Example 3, (R)-[5-(2-Methoxy-6-methyl-pyridin-3-yl)-2H-pyrazol-3-yl]-[6-(piperidin-3-yloxy)-pyrazin-2-yl]-amine acetic acid salt]
Target Modulatory Effective Dose 50 (TMED50) for Chk1 autophosphorylation: 1.3 mg/kg
